Source: PubChem BioAssay AID256 (DTP/NCI, 2004)
Several values for one entry are separate records, joined by “and”; a condition that tells them apart may be missing. Identical values can stand only once. Inconclusive results and toxic doses are left out. The calls were made as follows: active = survival T/C of 150% or more; inactive = T/C below 125% in these data.

System: CD2F1 mice, L1210 leukemia ip, survival T/C
Experiment: NCI In Vivo Anticancer Drug Screen. Data for tumor model L1210 Leukemia (intraperitoneal) in CD2F1 (CDF1) mice
Conditions: higher = longer survival
In short: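 In this screen, transplantable tumors were grown in mice given either the compound or its vehicle. Results were expressed as the treated measurement relative to the control measurement.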

[1] = endpoint: mean survival time, dose: 100.0 mg/kg/injection, schedule: Q04DX003 (ip), vehicle: saline
[2] = endpoint: mean survival time, dose: 200.0 mg/kg/injection, schedule: Q04DX003 (ip), vehicle: saline
[3] = endpoint: mean survival time, dose: 400.0 mg/kg/injection, schedule: Q04DX003 (ip), vehicle: saline
[4] = endpoint: mean survival time, dose: 100.0 mg/kg/injection, schedule: Q04DX003 (ip), vehicle: saline with Tween-80
[5] = endpoint: mean survival time, dose: 200.0 mg/kg/injection, schedule: Q04DX003 (ip), vehicle: saline with Tween-80
[6] = endpoint: mean survival time, dose: 400.0 mg/kg/injection, schedule: Q04DX003 (ip), vehicle: saline with Tween-80
[7] = endpoint: mean survival time, dose: 100.0 mg/kg/injection, schedule: Q01DX009 (ip), vehicle: saline sonified
[8] = endpoint: mean survival time, dose: 200.0 mg/kg/injection, schedule: Q01DX009 (ip), vehicle: saline sonified
[9] = endpoint: mean survival time, dose: 400.0 mg/kg/injection, schedule: Q01DX009 (ip), vehicle: saline sonified

Measured: T/C

CCOC(=O)Nc1cc(NC(C)/C(=N/O)c2ccccc2)c([N+](=O)[O-])c(N)n1 (stereo not drawn)
active: endpoint: median survival time, dose: 200.0 mg/kg/injection, schedule: Q01DX005 (ip), vehicle: Klucel (hydroxypropylcellulose) (HPC) 188 % of control
inactive: endpoint: median survival time, dose: 25.0 mg/kg/injection, schedule: Q01DX005 (ip), vehicle: Klucel (hydroxypropylcellulose) (HPC) 119 % of control and 98 % of control | endpoint: median survival time, dose: 30.0 mg/kg/injection, schedule: Q01DX005 (ip), vehicle: Klucel (hydroxypropylcellulose) (HPC) 98 % of control | endpoint: median survival time, dose: 40.0 mg/kg/injection, schedule: Q01DX005 (ip), vehicle: Klucel (hydroxypropylcellulose) (HPC) 119 % of control | endpoint: median survival time, dose: 60.0 mg/kg/injection, schedule: Q01DX005 (ip), vehicle: Klucel (hydroxypropylcellulose) (HPC) 110 % of control | endpoint: median survival time, dose: 120.0 mg/kg/injection, schedule: Q01DX005 (ip), vehicle: Klucel (hydroxypropylcellulose) (HPC) 122 % of control

Nc1nc(-c2ccc([N+](=O)[O-])cc2)c([N+](=O)[O-])c(=O)[nH]1
inactive: endpoint: mean survival time, dose: 3.13 mg/kg/injection, schedule: Q01DX009 (ip), vehicle: saline with Tween-80 96 % of control | endpoint: mean survival time, dose: 6.25 mg/kg/injection, schedule: Q01DX009 (ip), vehicle: saline with Tween-80 95 % of control | endpoint: mean survival time, dose: 12.5 mg/kg/injection, schedule: Q01DX001 (ip), vehicle: saline with Tween-80 94 % of control | endpoint: mean survival time, dose: 12.5 mg/kg/injection, schedule: Q01DX009 (ip), vehicle: saline with Tween-80 95 % of control

c1cc[c]([Ge]([c]2ccccc2)([c]2ccccc2)[c]2ccccc2)cc1
inactive: [1] 86 % of control | [2] 86 % of control | [3] 91 % of control

O=c1nc(-c2ccco2)sc(=O)[nH]1
inactive: endpoint: median survival time, dose: 25.0 mg/kg/injection, schedule: Q01DX009 (ip), vehicle: Klucel (hydroxypropylcellulose) (HPC) 100 % of control | endpoint: median survival time, dose: 50.0 mg/kg/injection, schedule: Q01DX009 (ip), vehicle: Klucel (hydroxypropylcellulose) (HPC) 106 % of control | endpoint: median survival time, dose: 100.0 mg/kg/injection, schedule: Q01DX009 (ip), vehicle: Klucel (hydroxypropylcellulose) (HPC) 96 % of control | endpoint: median survival time, dose: 200.0 mg/kg/injection, schedule: Q01DX009 (ip), vehicle: Klucel (hydroxypropylcellulose) (HPC) 102 % of control

COc1cccc(OC)c1C(c1c(OC)cccc1OC)c1c(OC)cccc1OC
inactive: endpoint: mean survival time, dose: 100.0 mg/kg/injection, schedule: Q01DX009 (ip), vehicle: saline with Tween-80 98 % of control | endpoint: mean survival time, dose: 200.0 mg/kg/injection, schedule: Q01DX009 (ip), vehicle: saline with Tween-80 103 % of control | endpoint: mean survival time, dose: 400.0 mg/kg/injection, schedule: Q01DX009 (ip), vehicle: saline with Tween-80 102 % of control

CC(=O)c1ccc2c(c1)-c1ccc(C(C)=O)cc1-2
inactive: [4] 86 % of control | [5] 86 % of control | [6] 90 % of control

C[N+](C)(C)CC1CO1 (stereo not drawn)
inactive: [1] 106 % of control | [2] 94 % of control

COc1cc(CC(C)N)ccc1O (stereo not drawn)
inactive: [4] 105 % of control | [5] 100 % of control | [6] 89 % of control

O=C(O)C(=O)O.O=C(O)C(=O)O.[Th]
inactive: endpoint: mean survival time, dose: 200.0 mg/kg/injection, schedule: Q01DX001 (ip), vehicle: saline 95 % of control | endpoint: mean survival time, dose: 400.0 mg/kg/injection, schedule: Q01DX001 (ip), vehicle: saline 97 % of control

CC1C(N2CCCCC2)CS1(=O)=O (stereo not drawn)
inactive: endpoint: mean survival time, dose: 25.0 mg/kg/injection, schedule: Q04DX002 (ip), vehicle: saline 104 % of control | endpoint: mean survival time, dose: 50.0 mg/kg/injection, schedule: Q04DX002 (ip), vehicle: saline 101 % of control | endpoint: mean survival time, dose: 100.0 mg/kg/injection, schedule: Q04DX002 (ip), vehicle: saline 108 % of control

CC1(O)OOC(=O)C1(C)C (stereo not drawn)
inactive: endpoint: mean survival time, dose: 5.0 mg/kg/injection, schedule: Q01DX001 (ip), vehicle: saline with Tween-80 91 % of control | endpoint: mean survival time, dose: 10.0 mg/kg/injection, schedule: Q01DX001 (ip), vehicle: saline with Tween-80 91 % of control | endpoint: mean survival time, dose: 20.0 mg/kg/injection, schedule: Q01DX001 (ip), vehicle: saline with Tween-80 92 % of control

CCOP(=O)(OCC)C(C#N)Cc1ccccc1OC (stereo not drawn)
inactive: [1] 98 % of control | [2] 101 % of control

COCCOCCOCCOCCOCCOCCOCCOC(=O)Nc1ccc(C)c(NC(=O)OCCOCCOCCOCCOCCOCCOCCOC)c1
inactive: [7] 96 % of control | [1] 96 % of control | [8] 96 % of control | [2] 100 % of control | [9] 93 % of control | [3] 100 % of control

O=S(=O)(O)O
inactive: [7] 100 % of control | [4] 96 % of control | [8] 97 % of control | [9] 97 % of control
